Assay results from publication PMC7311426, “An amphipathic peptide with antibiotic activity against multidrug-resistant Gram-negative bacteria” (Nature Communications, 2020).
Values after ≈ are worked out from the molar mass of the structure shown.

Test system: A. baumannii clinical isolates
Assay: microbe, parasite or virus in culture
Description: The in vitro activity of AA139 and comparator antimicrobials was determined in two panels of clinical isolates of E. coli, K. pneumoniae, P. aeruginosa, and A. baumannii (Supplementary Table 3), and MIC90 presented. The US panel consisted of 331 clinical isolates from 2010 to 2012. It was tested by BMD in accordance with the CLSI guidelines (M07-A9, 2012)[39]. […] AA139 was diluted in 0.01% acetic acid/0.1% bovine serum albumin. Sterile polypropylene culture cluster round-bottom 96-well plates (Costar # 3879) were used for testing. The worldwide panel consisted of 445 clinical isolates from 2011 to 2013, geographically divided into Asia, Europe, North America, and Rest of World (Middle East, Latin America, Africa, and South Pacific) with each region representing ~25% of the isolates. It was tested by broth microdilution in accordance with the CLSI guidelines (M07-A9, 2012)[39]. […] The test media was CAMHB (Becton Dickinson). AA139 and polymyxin B were tested in media supplemented with 0.002% Tween 80 (Calbiochem). MIC90 values were calculated for all or subsets of the isolates. MIC correlation between AA139 and colistin was analyzed with data from the US panel.

[1] = US isolates 2010-2012, isolate CID 1919446, Rep 1
[2] = US isolates 2010-2012, isolate CID 1919446, Rep 2
[3] = US isolates 2010-2012, isolate CID 1919519, Rep 1
[4] = US isolates 2010-2012, isolate CID 1919519, Rep 2
[5] = US isolates 2010-2012, isolate CID 1919714, Rep 1
[6] = US isolates 2010-2012, isolate CID 1919714, Rep 2
[7] = US isolates 2010-2012, isolate CID 1919942, Rep 1
[8] = US isolates 2010-2012, isolate CID 1919942, Rep 2
[9] = US isolates 2010-2012, isolate CID 1930670, Rep 1
[10] = US isolates 2010-2012, isolate CID 1930670, Rep 2
[11] = US isolates 2010-2012, isolate CID 1930676, Rep 1
[12] = US isolates 2010-2012, isolate CID 1930676, Rep 2
[13] = US isolates 2010-2012, isolate CID 2727597, Rep 1
[14] = US isolates 2010-2012, isolate CID 2727597, Rep 2
[15] = US isolates 2010-2012, isolate CID 2727598, Rep 1
[16] = US isolates 2010-2012, isolate CID 2727598, Rep 2
[17] = US isolates 2010-2012, isolate CID 2727898, Rep 1
[18] = US isolates 2010-2012, isolate CID 2727898, Rep 2
[19] = US isolates 2010-2012, isolate CID 2728115, Rep 1
[20] = US isolates 2010-2012, isolate CID 2728115, Rep 2
[21] = US isolates 2010-2012, isolate CID 2728119, Rep 1
[22] = US isolates 2010-2012, isolate CID 2728119, Rep 2
[23] = US isolates 2010-2012, isolate CID 2728650, Rep 1
[24] = US isolates 2010-2012, isolate CID 2728650, Rep 2
[25] = US isolates 2010-2012, isolate CID 2728663, Rep 1
[26] = US isolates 2010-2012, isolate CID 2728663, Rep 2
[27] = US isolates 2010-2012, isolate CID 2732481, Rep 1
[28] = US isolates 2010-2012, isolate CID 2732481, Rep 2
[29] = US isolates 2010-2012, isolate CID 2732486, Rep 1
[30] = US isolates 2010-2012, isolate CID 2732486, Rep 2
[31] = US isolates 2010-2012, isolate CID 2762740, Rep 1
[32] = US isolates 2010-2012, isolate CID 2762740, Rep 2
[33] = US isolates 2010-2012, isolate CID 2801947, Rep 1
[34] = US isolates 2010-2012, isolate CID 2801947, Rep 2
[35] = US isolates 2010-2012, isolate CID 2801949, Rep 1
[36] = US isolates 2010-2012, isolate CID 2801949, Rep 2
[37] = US isolates 2010-2012, isolate CID 2802027, Rep 1
[38] = US isolates 2010-2012, isolate CID 2802027, Rep 2
[39] = US isolates 2010-2012, isolate CID 2802028, Rep 1
[40] = US isolates 2010-2012, isolate CID 2802028, Rep 2
[41] = US isolates 2010-2012, isolate CID 2802029, Rep 1
[42] = US isolates 2010-2012, isolate CID 2802029, Rep 2
[43] = US isolates 2010-2012, isolate CID 2802031, Rep 1
[44] = US isolates 2010-2012, isolate CID 2802031, Rep 2
[45] = US isolates 2010-2012, isolate CID 2802109, Rep 2
[46] = US isolates 2010-2012, isolate CID 2802111, Rep 2
[47] = US isolates 2010-2012, isolate CID 2802187, Rep 1
[48] = US isolates 2010-2012, isolate CID 2802187, Rep 2

## CN(C)c1cc(NC(=O)CNC(C)(C)C)c(O)c2c1C[C@H]1C[C@H]3[C@H](N(C)C)C(O)=C(C(N)=O)C(=O)[C@@]3(O)C(O)=C1C2=O [Tig]
[1]
  MIC: 2 µg/mL (≈ 3.41 µM)
[2]
  MIC: 1 µg/mL (≈ 1.71 µM)
[3]
  MIC: 2 µg/mL (≈ 3.41 µM)
[4]
  MIC: 2 µg/mL (≈ 3.41 µM)
[5]
  MIC: 2 µg/mL (≈ 3.41 µM)
[6]
  MIC: 2 µg/mL (≈ 3.41 µM)
[7]
  MIC: 0.25 µg/mL (≈ 0.427 µM)
[8]
  MIC: 0.5 µg/mL (≈ 0.854 µM)
[9]
  MIC: 0.5 µg/mL (≈ 0.854 µM)
[10]
  MIC: 1 µg/mL (≈ 1.71 µM)
[11]
  MIC: 0.25 µg/mL (≈ 0.427 µM)
[12]
  MIC: 0.25 µg/mL (≈ 0.427 µM)
[13]
  MIC: 2 µg/mL (≈ 3.41 µM)
[14]
  MIC: 2 µg/mL (≈ 3.41 µM)
[15]
  MIC: 1 µg/mL (≈ 1.71 µM)
[16]
  MIC: 1 µg/mL (≈ 1.71 µM)
[17]
  MIC: 0.12 µg/mL (≈ 0.205 µM)
[18]
  MIC: 0.12 µg/mL (≈ 0.205 µM)
[19]
  MIC: 2 µg/mL (≈ 3.41 µM)
[20]
  MIC: 2 µg/mL (≈ 3.41 µM)
[21]
  MIC: 2 µg/mL (≈ 3.41 µM)
[22]
  MIC: 2 µg/mL (≈ 3.41 µM)
[23]
  MIC: 1 µg/mL (≈ 1.71 µM)
[24]
  MIC: 1 µg/mL (≈ 1.71 µM)
[25]
  MIC: 2 µg/mL (≈ 3.41 µM)
[26]
  MIC: 1 µg/mL (≈ 1.71 µM)
[27]
  MIC: 2 µg/mL (≈ 3.41 µM)
[28]
  MIC: 1 µg/mL (≈ 1.71 µM)
[29]
  MIC: 1 µg/mL (≈ 1.71 µM)
[30]
  MIC: 1 µg/mL (≈ 1.71 µM)
[31]
  MIC: 0.5 µg/mL (≈ 0.854 µM)
[32]
  MIC: 8 µg/mL (≈ 13.7 µM)
[33]
  MIC: 0.25 µg/mL (≈ 0.427 µM)
[34]
  MIC: 0.12 µg/mL (≈ 0.205 µM)
[35]
  MIC: 0.5 µg/mL (≈ 0.854 µM)
[36]
  MIC: 0.25 µg/mL (≈ 0.427 µM)
[37]
  MIC: 1 µg/mL (≈ 1.71 µM)
[38]
  MIC: 0.5 µg/mL (≈ 0.854 µM)
[39]
  MIC: 0.5 µg/mL (≈ 0.854 µM)
[40]
  MIC: 0.5 µg/mL (≈ 0.854 µM)
[41]
  MIC: 2 µg/mL (≈ 3.41 µM)
[42]
  MIC: 2 µg/mL (≈ 3.41 µM)
[43]
  MIC: 1 µg/mL (≈ 1.71 µM)
[44]
  MIC: 1 µg/mL (≈ 1.71 µM)
[45]
  MIC: 1 µg/mL (≈ 1.71 µM)
[46]
  MIC: 2 µg/mL (≈ 3.41 µM)
[47]
  MIC: 0.25 µg/mL (≈ 0.427 µM)
[48]
  MIC: 0.25 µg/mL (≈ 0.427 µM)

## CC(C)(O/N=C(\C(=O)N[C@@H]1C(=O)N2C(C(=O)[O-])=C(C[n+]3ccccc3)CS[C@H]12)c1csc(N)n1)C(=O)O [Ceftaz]
[1]
  MIC: 4 µg/mL (≈ 7.32 µM)
[2]
  MIC: 4 µg/mL (≈ 7.32 µM)
[3]
  MIC: > 32 µg/mL
[4]
  MIC: > 32 µg/mL
[5]
  MIC: > 32 µg/mL
[6]
  MIC: > 32 µg/mL
[7]
  MIC: 8 µg/mL (≈ 14.6 µM)
[8]
  MIC: 4 µg/mL (≈ 7.32 µM)
[9]
  MIC: > 32 µg/mL
[10]
  MIC: > 32 µg/mL
[11]
  MIC: 4 µg/mL (≈ 7.32 µM)
[12]
  MIC: 4 µg/mL (≈ 7.32 µM)
[13]
  MIC: > 32 µg/mL
[14]
  MIC: > 32 µg/mL
[15]
  MIC: > 32 µg/mL
[16]
  MIC: > 32 µg/mL
[17]
  MIC: 2 µg/mL (≈ 3.66 µM)
[18]
  MIC: 4 µg/mL (≈ 7.32 µM)
[19]
  MIC: > 32 µg/mL
[20]
  MIC: > 32 µg/mL
[21]
  MIC: 32 µg/mL (≈ 58.5 µM)
[22]
  MIC: 32 µg/mL (≈ 58.5 µM)
[23]
  MIC: > 32 µg/mL
[24]
  MIC: > 32 µg/mL
[25]
  MIC: > 32 µg/mL
[26]
  MIC: > 32 µg/mL
[27]
  MIC: 32 µg/mL (≈ 58.5 µM)
[28]
  MIC: 32 µg/mL (≈ 58.5 µM)
[29]
  MIC: > 32 µg/mL
[30]
  MIC: 32 µg/mL (≈ 58.5 µM)
[31]
  MIC: > 32 µg/mL
[32]
  MIC: > 32 µg/mL
[33]
  MIC: 2 µg/mL (≈ 3.66 µM)
[34]
  MIC: 2 µg/mL (≈ 3.66 µM)
[35]
  MIC: 8 µg/mL (≈ 14.6 µM)
[36]
  MIC: 2 µg/mL (≈ 3.66 µM)
[37]
  MIC: > 32 µg/mL
[38]
  MIC: > 32 µg/mL
[39]
  MIC: > 32 µg/mL
[40]
  MIC: > 32 µg/mL
[41]
  MIC: > 32 µg/mL
[42]
  MIC: > 32 µg/mL
[43]
  MIC: > 32 µg/mL
[44]
  MIC: > 32 µg/mL
[45]
  MIC: 32 µg/mL (≈ 58.5 µM)
[46]
  MIC: 8 µg/mL (≈ 14.6 µM)
[47]
  MIC: 4 µg/mL (≈ 7.32 µM)
[48]
  MIC: 4 µg/mL (≈ 7.32 µM)
